{
  "source": "patent US20130261191A1",
  "about": "“USE OF ESSENTIAL OIL COMPOUNDS AS HISTOMONASTAT” (DSM IP ASSETS B.V., priority 2007, published 2013)",
  "data": [
    {"test_system": "Histomonas meleagridis", "test": "In vitro lethal activity (minimal lethal concentration) towards Histomonas meleagridis culture, Trypan blue vital coloration", "format": "cell-based", "details": "lowest dilution in which no live organisms were observed; H. meleagridis culture 10^6 parasites/ml, 39° C., anaerobic", "experimental": "The in vitro activity of the several essential oil compounds was assessed using the following technique. Aliquots of 1 ml of H. meleagridis culture (10^6 parasites/ml) were incubated anaerobicaly for 24 h at 39° C. Twelve two-fold dilutions of a stock solution of each compound were prepared in 96-well U bottom plates (Prolabo, Lyon, France) in Tween 80 (Sigma, L'Isle d'Abeau, France) and added to the parasites. The initial dilution was 2% ([…]). After incubation for 24 h and 48 h, the number of live parasite in each culture was estimated by vital coloration with Trypan blue 0.4% (Gibco, BRL Life technology, Cergy Pontoise, France). The lowest dilution in which no live organisms were observed was defined as the minimal lethal concentration (MLC).", "units": {"minimal lethal concentration (MLC)": "ppm"}, "values": [
      {"compound": "Cc1ccc(C(C)C)cc1", "note": "[cymene, p-]", "minimal lethal concentration (MLC)": 500},
      {"compound": "O=C/C=C/c1ccccc1", "note": "[cinnamaldehyde, trans-]", "minimal lethal concentration (MLC)": 250},
      {"compound": "C=CC(C)(O)CCC=C(C)CCC=C(C)C", "note": "(stereo not drawn) [nerolidol]", "minimal lethal concentration (MLC)": 125}
    ]}
  ]
}
